Measurements: patent US11247990B1, “Bicyclic fused pyridine compounds as inhibitors of TAM kinases” (ARRAY BIOPHARMA INC., priority 2017, dated 2022)
pIC50: −log10 of the molar value.

Biological target: His-tagged recombinant human MER cytoplasmic domain (Homo sapiens (Human), UniProt Q12866)
Test: MER Enzyme Assay (LanthaScreen Eu Kinase Binding, TR-FRET)
Conditions: averaged IC50
Description: Compounds of Formula I were screened for their ability to inhibit MER kinase using Invitrogen's LanthaScreen™ Eu Kinase Binding technology. […] After a 60-minute incubation at 22° C., the reaction was measured using a PerkinElmer EnVision multimode plate reader via TR-FRET dual wavelength detection, and the percent of control (POC) was calculated using a ratiometric emission factor. […] The POC values are fit to a 4 parameter logistic curve and the IC50 value is point where the curve crosses 50 POC.

Sequence of His-tagged recombinant human MER cytoplasmic domain (Q12866 527-999): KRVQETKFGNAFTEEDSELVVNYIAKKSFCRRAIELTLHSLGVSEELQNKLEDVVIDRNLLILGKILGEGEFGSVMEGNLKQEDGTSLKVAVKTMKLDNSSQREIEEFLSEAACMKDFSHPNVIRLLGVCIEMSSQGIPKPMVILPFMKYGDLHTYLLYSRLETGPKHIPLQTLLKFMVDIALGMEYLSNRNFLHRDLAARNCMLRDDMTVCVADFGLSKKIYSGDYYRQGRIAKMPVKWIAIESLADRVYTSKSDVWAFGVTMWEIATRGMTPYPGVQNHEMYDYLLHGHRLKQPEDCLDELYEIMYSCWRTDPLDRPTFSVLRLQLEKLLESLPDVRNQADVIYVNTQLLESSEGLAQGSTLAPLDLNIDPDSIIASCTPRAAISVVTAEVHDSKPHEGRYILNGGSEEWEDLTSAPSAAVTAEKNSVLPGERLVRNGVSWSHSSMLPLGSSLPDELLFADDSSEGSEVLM

pIC50	Structure (SMILES)
> 8.00	CCNc1cc2c(cn1)c(-c1cnn(C[C@H](O)[C@H](C)O)c1)nn2[C@H]1CC[C@@H](Oc2ccccc2F)CC1 [Example 430, (2S,3S)-1-(4-(6-(ethylamino)-1-((1s,4R)-4-(2-fluorophenoxy)cyclohexyl)-1H-pyrazolo[4,3-c]pyridin-3-yl)-1H-pyrazol-1-yl)butane-2,3-diol]
> 8.00	CNc1cc2c(cn1)c(-c1cnn(C)c1)nn2[C@H]1CC[C@@H](Oc2nccc(C(F)(F)F)n2)CC1 [Example 153, N-methyl-3-(1-methyl-1H-pyrazol-4-yl)-1-((1s,4s)-4-((4-(trifluoromethyl)pyrimidin-2-yl)oxy)cyclohexyl)-1H-pyrazolo[4,3-c]pyridin-6-amine]
> 8.00	CCNc1cc2c(cn1)c(-c1cnn(C[C@@H](O)C(C)(C)O)c1)nn2[C@H]1CC[C@@H](Oc2cccc(Cl)c2)CC1 [Example 443, (R)-1-(4-(1-((1s,4S)-4-(3-chlorophenoxy)cyclohexyl)-6-(ethylamino)-1H-pyrazolo[4,3-c]pyridin-3-yl)-1H-pyrazol-1-yl)-3-methylbutane-2,3-diol]
> 8.00	CCNc1cc2c(cn1)c(-c1ccc(C(=O)NC3CC3)cc1)nn2[C@H]1CC[C@@H](Oc2cn(C)nc2C)CC1 [Example 231, N-cyclopropyl-4-(1-((1s,4s)-4-((1,3-dimethyl-1H-pyrazol-4-yl)oxy)cyclohexyl)-6-(ethylamino)-1H-pyrazolo[4,3-c]pyridin-3-yl)benzamide]
> 8.00	CNc1cc2c(cn1)c(-c1cnn(C)c1)nn2[C@H]1CC[C@@H](Oc2cccc(=O)n2C)CC1 [Example 110, 1-methyl-6-(((1s,4s)-4-(3-(1-methyl-1H-pyrazol-4-yl)-6-(methylamino)-1H-pyrazolo[4,3-c]pyridin-1-yl)cyclohexyl)oxy)pyridin-2(1H)-one]
> 8.00	CCNc1cc2c(cn1)c(-c1cnn(C(CO)CO)c1)nn2[C@H]1CC[C@@H](Oc2cc(F)ccc2F)CC1 [Example 416, 2-(4-(1-((1s,4s)-4-(2,5-difluorophenoxy)cyclohexyl)-6-(ethylamino)-1H-pyrazolo[4,3-c]pyridin-3-yl)-1H-pyrazol-1-yl)propane-1,3-diol]
> 8.00	CNc1cc2c(cn1)c(-c1cnn(C)c1)nn2[C@H]1CC[C@@H](Oc2ccc(=O)[nH]c2)CC1 [Example 25, 5-(((1s,4s)-4-(3-(1-methyl-1H-pyrazol-4-yl)-6-(methylamino)-1H-pyrazolo[4,3-c]pyridin-1-yl)cyclohexyl)oxy)pyridin-2(1H)-one]
> 8.00	CCNc1cc2c(cn1)c(-c1cnn(C)c1)nn2[C@H]1CC[C@@H](Oc2cccnc2C)CC1 [Example 185, N-ethyl-3-(1-methyl-1H-pyrazol-4-yl)-1-((1s,4s)-4-((2-methylpyridin-3-yl)oxy)cyclohexyl)-1H-pyrazolo[4,3-c]pyridin-6-amine]
> 8.00	CCNc1cc2c(cn1)c(-c1cnn(C)c1)nn2[C@H]1CC[C@@H](Oc2nccnc2C)CC1 [Example 189, N-ethyl-3-(1-methyl-1H-pyrazol-4-yl)-1-((1s,4s)-4-((3-methylpyrazin-2-yl)oxy)cyclohexyl)-1H-pyrazolo[4,3-c]pyridin-6-amine]
> 8.00	CNc1cc2c(cn1)c(-c1cnn(C)c1)nn2[C@H]1CC[C@@H](Oc2cccc(C)c2)CC1 [Example 366, N-methyl-3-(1-methyl-1H-pyrazol-4-yl)-1-((1s,4s)-4-(m-tolyloxy)cyclohexyl)-1H-pyrazolo[4,3-c]pyridin-6-amine]
> 8.00	CCNc1cc2c(cn1)c(-c1cnn(C(CO)CO)c1)nn2[C@H]1CC[C@@H](Oc2cccc(F)c2)CC1 [Example 412, 2-(4-(6-(ethylamino)-1-((1s,4s)-4-(3-fluorophenoxy)cyclohexyl)-1H-pyrazolo[4,3-c]pyridin-3-yl)-1H-pyrazol-1-yl)propane-1,3-diol]
> 8.00	CCNc1cc2c(cn1)c(-c1ccc(CN3CC(C)(O)C3)cc1)nn2[C@H]1CC[C@@H](Oc2ccc(=O)n(C)n2)CC1 [Example 90, 6-(((1s,4s)-4-(6-(ethylamino)-3-(4-((3-hydroxy-3-methylazetidin-1-yl)methyl)phenyl)-1H-pyrazolo[4,3-c]pyridin-1-yl)cyclohexyl)oxy)-2-methylpyridazin-3(2H)-one]

The remaining lines, values behind:

Structure (SMILES)	pIC50
CCNc1cc2c(cn1)c(-c1cnn(C)c1)nn2[C@H]1CC[C@@H](Oc2ccc(C(=O)NC)cc2C(F)(F)F)CC1 [Example 392, 4-(((1s,4s)-4-(6-(ethylamino)-3-(1-methyl-1H-pyrazol-4-yl)-1H-pyrazolo[4,3-c]pyridin-1-yl)cyclohexyl)oxy)-N-methyl-3-(trifluoromethyl)benzamide]	> 8.00
CCNc1cc2c(cn1)c(-c1cnn(C3CCS(=O)(=O)C3)c1)nn2[C@H]1CC[C@@H](Oc2ccccc2F)CC1 (stereo partly shown) [Example 425, 3-(4-(6-(ethylamino)-1-((1s,4s)-4-(2-fluorophenoxy)cyclohexyl)-1H-pyrazolo[4,3-c]pyridin-3-yl)-1H-pyrazol-1-yl)tetrahydrothiophene 1,1-dioxide]	> 8.00
CCNc1cc2c(cn1)c(-c1cnn(C3CS(=O)(=O)C3)c1)nn2[C@H]1CC[C@@H](Oc2ccccc2F)CC1 [Example 426, 3-(4-(6-(ethylamino)-1-((1s,4s)-4-(2-fluorophenoxy)cyclohexyl)-1H-pyrazolo[4,3-c]pyridin-3-yl)-1H-pyrazol-1-yl)thietane 1,1-dioxide]	> 8.00
CCNc1cc2c(cn1)c(-c1ccc(CN3CCN(C)CC3)cc1)nn2[C@H]1CC[C@@H](Oc2cnn(C)c2)CC1 [Example 233, N-ethyl-1-((1s,4s)-4-((1-methyl-1H-pyrazol-4-yl)oxy)cyclohexyl)-3-(4-((4-methylpiperazin-1-yl)methyl)phenyl)-1H-pyrazolo[4,3-c]pyridin-6-amine]	> 8.00
CCNc1cc2c(cn1)c(-c1ccc(CN3CC[C@@H](OC)C3)cc1)nn2[C@H]1CC[C@@H](Oc2ccc(=O)n(C)n2)CC1 [Example 83, 6-(((1S,4s)-4-(6-(ethylamino)-3-(4-(((R)-3-methoxypyrrolidin-1-yl)methyl)phenyl)-1H-pyrazolo[4,3-c]pyridin-1-yl)cyclohexyl)oxy)-2-methylpyridazin-3(2H)-one]	> 8.00
CCNc1cc2c(cn1)c(-c1cnn(C[C@@H](O)CO)c1)nn2[C@H]1CC[C@@H](Oc2ccnc(C(F)(F)F)n2)CC1 [Example 241, (R)-3-(4-(6-(ethylamino)-1-((1s,4S)-4-((2-(trifluoromethyl)pyrimidin-4-yl)oxy)cyclohexyl)-1H-pyrazolo[4,3-c]pyridin-3-yl)-1H-pyrazol-1-yl)propane-1,2-diol]	> 8.00
CCNc1cc2c(cn1)c(-c1ccc(CN3CC[C@@H](CO)C3)cc1)nn2[C@H]1CC[C@@H](Oc2ccc(=O)n(C)n2)CC1 [Example 95, 6-(((1S,4s)-4-(6-(ethylamino)-3-(4-(((R)-3-(hydroxymethyl)pyrrolidin-1-yl)methyl)phenyl)-1H-pyrazolo[4,3-c]pyridin-1-yl)cyclohexyl)oxy)-2-methylpyridazin-3(2H)-one]	> 8.00
CCNc1cc2c(cn1)c(-c1cnn(C)c1)nn2[C@H]1CC[C@@H](Oc2cccnc2CC)CC1 [Example 193, N-ethyl-1-((1s,4s)-4-((2-ethylpyridin-3-yl)oxy)cyclohexyl)-3-(1-methyl-1H-pyrazol-4-yl)-1H-pyrazolo[4,3-c]pyridin-6-amine]	> 8.00
CCNc1cc2c(cn1)c(-c1cn[nH]c1)nn2[C@H]1CC[C@@H](Oc2ccccc2F)CC1 [Example 401, N-ethyl-1-((1s,4s)-4-(2-fluorophenoxy)cyclohexyl)-3-(1H-pyrazol-4-yl)-1H-pyrazolo[4,3-c]pyridin-6-amine]	> 8.00
CCNc1cc2c(cn1)c(-c1cnn(C)c1)nn2[C@H]1CC[C@@H](Oc2cnnn2CC)CC1 [Example 225, N-ethyl-1-((1 s,4s)-4-((1-ethyl-1H-1,2,3-triazol-5-yl)oxy)cyclohexyl)-3-(1-methyl-1H-pyrazol-4-yl)-1H-pyrazolo[4,3-c]pyridin-6-amine]	> 8.00
CCNc1cc2c(cn1)c(-c1ccc(CN3CC[C@@H](C)C3)cc1)nn2C1CCC(Oc2ccc(=O)n(C)n2)CC1 (stereo partly drawn) [Example 98, 6-(((1S,4s)-4-(6-(ethylamino)-3-(4-(((R)-3-methylpyrrolidin-1-yl)methyl)phenyl)-1H-pyrazolo[4,3-c]pyridin-1-yl)cyclohexyl)oxy)-2-methylpyridazin-3(2H)-one]	> 8.00
CCNc1cc2c(cn1)c(Br)nn2[C@H]1CC[C@@H](Oc2ccc(=O)[nH]c2C(F)(F)F)CC1 [Example 106]	> 8.00
CCNc1cc2c(cn1)c(C1CCCOC1)nn2[C@H]1CC[C@@H](Oc2nccc(C(F)(F)F)c2F)CC1 (stereo partly shown) [Example 318, N-ethyl-1-((1s,4s)-4-((3-fluoro-4-(trifluoromethyl)pyridin-2-yl)oxy)cyclohexyl)-3-(tetrahydro-2H-pyran-3-yl)-1H-pyrazolo[4,3-c]pyridin-6-amine]	> 8.00
CCNc1cc2c(cn1)c(-c1cnc(OC)nc1)nn2[C@H]1CC[C@@H](Oc2nccc(C(F)(F)F)c2F)CC1 [Example 269, N-ethyl-1-((1s,4s)-4-((3-fluoro-4-(trifluoromethyl)pyridin-2-yl)oxy)cyclohexyl)-3-(2-methoxypyrimidin-5-yl)-1H-pyrazolo[4,3-c]pyridin-6-amine]	> 8.00
CCNc1cc2c(cn1)c(-c1ccc(CN3CCN(C)CC3)cc1)nn2[C@H]1CC[C@@H](Oc2cn(C)nc2C)CC1 [Example 229, 1-((1s,4s)-4-((1,3-dimethyl-1H-pyrazol-4-yl)oxy)cyclohexyl)-N-ethyl-3-(4-((4-methylpiperazin-1-yl)methyl)phenyl)-1H-pyrazolo[4,3-c]pyridin-6-amine]	> 8.00
CNc1cc2c(cn1)c(-c1cnn(C)c1)nn2[C@H]1CC[C@@H](Oc2ccnn2C)CC1 [Example 143, N-methyl-3-(1-methyl-1H-pyrazol-4-yl)-1-((1s,4s)-4-((1-methyl-1H-pyrazol-5-yl)oxy)cyclohexyl)-1H-pyrazolo[4,3-c]pyridin-6-amine]	> 8.00
